Experiment [1] relates to increase in the diastolic pressure caused by vasopressin. The experiment is described as follows: Vasopressin antagonistic activity in vivo. The settings on record: Rattus norvegicus; oral, awake male SD-rats, vasopressin 30 mU/kg i.v.; read-out: ID50 (oral dose required to achieve 50% inhibitory effect on increase in diastolic pressure). As for the experimental part:
Test-3: Vasopressin antagonistic activity in vivo
In order to test the vasopressin antagonistic activity of the compound of the present invention when admistered orally to rats under awaking, the following experiment was conducted. Cannulas were inserted into the aorta abdominalis and the carotid arteries of male SD-rats (body weight: 300-450 g) under pentobarbital-anesthetization. A few days thereafter, vasopressin (30 mU/kg) was administered intravenously to the rats under awaking with measuring the blood pressure at the cannula inserted into the arorta abdominalis by a piezo-electric transducer. The test compound was dissolved in polyethylene glycol or water, or suspended in 5% gum arabic solution, and orally administered by force to the rats.
The increase in the diastolic pressure of the rat was periodically mesured at 30 minutes' interval after the administration of vasopressin for 8 hours. The rate of inhibitory effect (%) of the test compound on the increase in the diastolic pressure caused by vasopressin (30 mU/kg) was calculated based on the increase in the diastolic pressure when vasopressin (30 mU/kg) was intravenously administered without a test compound.
The test result is expressed as ID50 value, which is the oral dose of the test compound required to achieve the inhibitory effect in the rate of 50% and is shown in Table 158 as follows: […]

The nature of experiment [2]: Anti-antiduretic water diuretic activity in vivo. The settings on record: oral, male SD-rats, first 2 hours, vs control group; read-out: ED3 (oral dose required to increase the amount of urine excreted for the first 2 hours). As for the experimental part:
Test-4: Anti-antiduretic water diuretic/activity in vivo
The test compound of the present invention was dissolved in polyethylene glycol 400 or water or suspended in 5% gum arabic aqueous solution, and the mixture was orally administered by force to male SD-rats (body weight: 300 to 400 g) under untreated and unrestrained. After administration the rats were kept in a metabolism cage and the amount of urine spontaneously excreted by the rats was measured at 2 hours' interval, during which the rats could freely be given feed and water.
In the cotrol group, a solvent was administered instead of a test compound solution (or suspension).
The test results are expressed as ED3, which is the oral dose of the test compound which is required to increase the amount of the urine excreted from the rat in the test compound-treated group for the first 2 hours by time based on the amount of urine excreted from the rat for the first 2 hours in the control group.

The target of experiment [3] is T1, V2 Recepter (rat kidney plasma membrane preparations) (Rattus norvegicus, UniProt Q00788).
T1 construct: rat kidney plasma membrane preparations; from tissue; host or cells: rat kidney plasma membranes
T1 sequence (Q00788 whole entry): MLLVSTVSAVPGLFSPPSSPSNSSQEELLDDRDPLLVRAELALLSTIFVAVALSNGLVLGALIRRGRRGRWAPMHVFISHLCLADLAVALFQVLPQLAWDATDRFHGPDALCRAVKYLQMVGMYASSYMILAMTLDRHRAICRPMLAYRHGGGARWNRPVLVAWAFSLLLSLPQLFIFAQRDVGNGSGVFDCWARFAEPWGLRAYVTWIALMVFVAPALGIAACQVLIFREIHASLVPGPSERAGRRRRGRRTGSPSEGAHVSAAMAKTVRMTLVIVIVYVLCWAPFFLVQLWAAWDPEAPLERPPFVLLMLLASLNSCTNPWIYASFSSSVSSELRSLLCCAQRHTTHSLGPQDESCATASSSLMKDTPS
The experiment is described as follows: V2 Recepter binding assay. The settings on record: [3H]-Arg-vasopressin 4×10^-10 M, 4° C., pH 8.0, rat kidney plasma membrane. The gist of the method: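 Rat kidney plasma membranes incubated with [^3H]-Arg-vasopressin (4×10^-10 M) and test compound (10^-10 to 10^-5 M) for 3 h at 4 °C in 100 mM Tris-HCl pH 8.0 with 5 mM MgCl2, 1 mM EDTA, 0.1% BSA. Bound label by filtration and scintillation counting; nonspecific binding with 10^-6 M vasopressin; IC50 reported.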

Experiment [4] concerns the target T2, Oxytocin receptor (uterin muscle membrane preparation) (Rattus norvegicus, UniProt P70536).
T2 construct: was homogenized, which was used as a membrane; from tissue; host or cells: uterine muscle membranes from diethylstilbestrol-treated animals
T2 sequence (P70536 1-388): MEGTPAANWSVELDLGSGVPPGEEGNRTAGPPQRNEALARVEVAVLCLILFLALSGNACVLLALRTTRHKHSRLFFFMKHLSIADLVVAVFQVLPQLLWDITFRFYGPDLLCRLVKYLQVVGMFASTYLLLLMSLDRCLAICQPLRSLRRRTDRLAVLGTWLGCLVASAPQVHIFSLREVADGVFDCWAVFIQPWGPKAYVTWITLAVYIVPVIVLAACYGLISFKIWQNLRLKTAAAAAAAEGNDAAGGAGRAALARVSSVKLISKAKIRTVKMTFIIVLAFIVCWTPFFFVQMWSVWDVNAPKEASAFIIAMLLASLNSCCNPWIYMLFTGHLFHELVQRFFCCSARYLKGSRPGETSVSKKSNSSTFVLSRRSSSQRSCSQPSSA
The experiment is described as follows: Oxytocin receptor binding assay. The settings on record: [3H]-oxytocin 10^-9 M, 25°, one hour, pH 8.0, uterin muscle membrane, DES-treated. The essentials:
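Rat uterine membranes (0.2 mg; DES-primed day before) incubated 1 h at 25° with [3H]-oxytocin (10^-9 M) and compound (10^-9 to 10^-5 M) in 100 mM Tris-HCl pH 8.0, 5 mM MgCl2, 1 mM EDTA, 0.1% BSA. Filter-bound radioactivity counted; nonspecific with 5×10^-6 M oxytocin; IC50 reported.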

The target of experiment [5] is T3, V1 Recepter (rat liver plasma membrane preparations) (Rattus norvegicus, UniProt P30560).
T3 construct: rat liver plasma membrane preparations; from tissue; host or cells: rat liver plasma membranes
T3 sequence (P30560 whole entry): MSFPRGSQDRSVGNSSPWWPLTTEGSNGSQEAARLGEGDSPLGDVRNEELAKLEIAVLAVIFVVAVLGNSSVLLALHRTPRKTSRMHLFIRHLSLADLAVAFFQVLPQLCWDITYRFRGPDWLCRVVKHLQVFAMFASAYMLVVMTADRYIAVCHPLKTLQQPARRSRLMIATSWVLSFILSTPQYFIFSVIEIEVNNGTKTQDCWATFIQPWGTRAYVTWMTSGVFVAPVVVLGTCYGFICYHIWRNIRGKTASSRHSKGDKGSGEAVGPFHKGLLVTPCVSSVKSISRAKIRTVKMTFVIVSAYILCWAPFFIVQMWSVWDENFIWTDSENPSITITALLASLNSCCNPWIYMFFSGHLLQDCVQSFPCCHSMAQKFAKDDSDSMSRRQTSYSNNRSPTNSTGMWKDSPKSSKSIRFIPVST
The experiment is described as follows: V1 Recepter binding assay. Conditions: [3H]-Arg-vasopressin 2×10^-10 M, 37° C., 10 minutes, pH 8.0, rat liver plasma membrane. The gist of the method:
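Rat liver plasma membranes incubated with [3H]-Arg-vasopressin (2×10^-10 M) and compound (10^-8 to 10^-4 M) for 10 min at 37° C in Tris-HCl pH 8.0 with MgCl2, EDTA, BSA. Bound label separated by glass-fibre filtration, scintillation counted; nonspecific binding with 10^-6 M vasopressin; IC50 reported.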

Counter-ions that a name gives are not always drawn.

In the case of `COc1cc(NC(=O)c2ccccc2C)ccc1C(=O)N1CCCC(CC(=O)N2CCN(C)CC2)c2cc(Cl)ccc21` (centres unmarked) [Example 63, 5-[(4-Methyl-1-piperazinyl)carbonylmethyl]-7-chloro-1-[2-methoxy-4-(2-methylbenzoylamino)benzoyl]-2,3,4,5-tetrahydro-1H-benzoazepine], the ED50 in experiment [1] turned out to be 3.4 mg/kg. For the same compound, the ED (3-fold) in experiment [2] came out at 3.2 mg/kg.

As to `COc1cc(NC(=O)c2ccccc2Cl)ccc1C(=O)N1CCCC(NC(=O)c2ccccc2Cl)c2cc(Cl)ccc21` (centres unmarked) [Example 159, 5-(2-Chlorobenzoylamino)-7-chloro-1-[2-methoxy-4-(2-chlorobenzoylamino)benzoyl]-2,3,4,5-tetrahydro-1H-benzoazepine], the IC50 in experiment [3] came to 25 nM; in experiment [4] it was 1700 nM; in experiment [5], 280 nM.

As to `COc1cc(NC(=O)c2ccccc2Cl)ccc1C(=O)N1CCCC(CC(=O)NCCN(C)CCO)c2cc(Cl)ccc21` (centres unmarked) [Example 160, 5-{2-[N-(2-Hydroxyethyl)-N-methylamino]ethyl}-aminocarbonylmethyl-7-chloro-1-[2-methoxy-4-(2-chlorobenzoylamino)benzoyl]-2,3,4,5-tetrahydro-1H-benzoazepine], the IC50 in experiment [3] was 3.3 nM; in experiment [4], 84 nM; in experiment [5], 6 nM.

Take `COc1cc(C(=O)N2CCCC(CC(=O)NCCN3CCOCC3)c3cc(Cl)ccc32)ccc1NC(=O)c1ccccc1Br` (centres unmarked) [Example 164, 5-(2-Morpholinoethyl)aminocarbonylmethyl-7-chlorolo-[3-methoxy-4-(2-bromobenzoylamino)-benzoyl]-2,3,4,5-tetrahydro-1H-benzoazepine]: the IC50 in experiment [3] was determined as 8.5 nM; in experiment [4] it was 41 nM; in experiment [5], 2.6 nM.

With `COc1cc(C(=O)N2CCCC(OCC(=O)NCCN3CCCCC3)c3cc(Cl)ccc32)ccc1NC(=O)c1ccccc1Br` (centres unmarked) [Example 167, 5-[2-(1-Piperidinyl)ethyl]aminocarbonylmethoxy-7-chloro-1-[3-methoxy-4-(2-bromobenzoylamino)benzoyl]-2,3,4,5-tetrahydro-1H-benzoazepine], the IC50 is 8.5 nM in experiment [3], 177 nM in experiment [4] and 5.5 nM in experiment [5].

Regarding `COc1cc(C(=O)N2CCCC(OCC(=O)NCCN3CCOCC3)c3cc(Cl)ccc32)ccc1NC(=O)c1ccccc1Br` (centres unmarked) [Example 168, 5-(2-Morpholinoethyl)aminocarbonylmethoxy-7-chloro-1-[3-methoxy-4-(2-bromobenzoylamino)benzoyl]-2,3,4,5-tetrahydro-1H-benzoazepine], the IC50 in experiment [3] turned out to be 19 nM; in experiment [4], 85 nM; in experiment [5] it was 10 nM.

Regarding `C=CCNCCOC1CCCN(C(=O)c2ccc(NC(=O)c3ccccc3Cl)cc2OC)c2ccc(Cl)cc21` (centres unmarked) [Example 169, 5-(2-Allylaminoethoxy)-7-chloro-1-[2-methoxy-4-(2-chlorobenzoylamino)benzoyl]-2,3,4,5-tetrahydro-1H-benzoazepine.cndot.hydrochloride], the IC50 in experiment [3] came to 5.6 nM; in experiment [4], 147 nM; in experiment [5], 7 nM.

On to `C#CCNCCOC1CCCN(C(=O)c2ccc(NC(=O)c3ccccc3Cl)cc2OC)c2ccc(Cl)cc21` (centres unmarked) [Example 170, 5-(2-Propargylaminoethoxy)-7-chloro-1-[2-methoxy-4-(2-chlorobenzoylamino)benzoyl]-2,3,4,5-tetrahydro-1H-benzoazepine.cndot.hydrochloride], for which the IC50 came to 7 nM in experiment [3], 416 nM in experiment [4] and 24 nM in experiment [5].

For the compound `COc1cc(NC(=O)c2ccccc2Cl)ccc1C(=O)N1CCCC(OCCn2ccnc2)c2cc(Cl)ccc21` (centres unmarked) [Example 171, 5-[2-(1-Imidazolyl)ethoxy]-7-chloro-1-[2-methoxy-4-(2-chlorobenzoylamino)benzoyl]-2,3,4,5-tetrahydro-1H-benzoazepine], the IC50 in experiment [3] turned out to be 15 nM; in experiment [4] it was 317 nM; in experiment [5], 110 nM.

As to `COc1cc(NC(=O)c2ccccc2Cl)ccc1C(=O)N1CCCC(OCCNS(C)(=O)=O)c2cc(Cl)ccc21` (centres unmarked) [Example 172, 5-(2-Methanesulfonylaminoethoxy)-7-chloro-1-[2-methoxy-4-(2-chlorobenzoylamino)benzoyl]-2,3,4,5-tetrahydro-1H-benzoazepine], the IC50 was found to be 3.9 nM in experiment [3], 133 nM in experiment [4] and 5 nM in experiment [5].

The IC50 is the concentration that inhibits the measured activity by half. Lower therefore signals higher potency.

(Values after patent US5622947A, “Benzoheterocyclic compounds and vasopressin antagonist and oxytocin antagonist compositions containing a benzoheterocyclic compound” (Otsuka Pharmaceutical Co., Ltd., priority 1992, dated 1997).)
